Measured values taken from patent US20060229433A1, “Modified antiviral peptides with increased activity and cell membrane affinity” (priority 2003, published 2006).
Where “and” joins values, the source holds several entries; their conditions need not be identical. Equal values may be shown once. Square brackets hold non-standard residues; d marks the D form. Peptide text beside a SMILES is read from it. Ava = NCCCCC(=O)O

Columns and labels:
Format in all cases: cell-based
HIV-1 NL 4-3 [1] = experiment: HIV-1 infection of C8166 cells (syncytia formation, p24 ELISA) with HIV-1 NL 4-3; design: key: ++, +, (+), (+)− and − represent decreasing numbers of syncitia formed; ++, +, (+), (+)− and − represent decreasing numbers of syncitia formed; ++, +, (+), (+)− and − represent decreasing numbers of syncitia formed; ++, +, (+), (+)− and − represent decreasing numbers of syncitia formed; ++, +, (+), (+)− and − represent decreasing numbers of syncitia formed; conditions: Table 6
Procedure, shortened: (§1)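 C8166 T-cells were preincubated with peptide for 1 h at 37 °C, then exposed for 1 h to HIV-1 at 1000 TCID50/ml, washed, and cultured with peptide kept present throughout, with medium replaced at day 4. Infection was scored by syncytia formation and by supernatant p24 ELISA, with at least two runs in duplicate.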

HIV-1 NL 4-3 [2] = experiment: as above; conditions: for Day 7 syncitia formed / P 24: Table 6; for P 24: Day 7
Procedure, shortened: as §1

HIV-1 NDK = experiment: HIV-1 infection of C8166 cells (syncytia formation, p24 ELISA) with HIV-1 NDK; design: key to syncitia formed, Day 4 / syncitia formed, Day 5 / syncitia formed, Day 6 / syncitia formed, Day 7: ++, +, (+), (+)− and − represent decreasing numbers of syncitia formed; ++, +, (+), (+)− and − represent decreasing numbers of syncitia formed; ++, +, (+), (+)− and − represent decreasing numbers of syncitia formed; ++, +, (+), (+)− and − represent decreasing numbers of syncitia formed; ++, +, (+), (+)− and − represent decreasing numbers of syncitia formed; conditions: for P 24: P 24 after Day 7
Procedure, shortened: as §1

[3] = C8166 cells, HIV-1 subtype B NL 4-3, Table 9, two lines = tested twice, 8 days apart

Structure (SMILES): C[C@H](NC(=O)[C@H](CCCNC(=N)N)NC(=O)CNC(=O)[C@@H]1CCCN1C(=O)CN)C(=O)N[C@@H](Cc1ccccc1)C(=O)NCCCCC(=O)O [SPC3 monomer valeric acid, GPGRAF-NHCH2CH2CH2CH2COOH] (H-GPGRAF[Ava]-OH; N-terminus assumed)
- Day 4 syncitia formed (HIV-1 NL 4-3 [1]; 0.005 μM): −
- Day 5 syncitia formed (HIV-1 NL 4-3 [1]; 0.005 μM): +
- Day 6 syncitia formed (HIV-1 NL 4-3 [1]; 0.005 μM): ++
- Day 4 syncitia formed (HIV-1 NL 4-3 [1]; 0.01 μM): −
- Day 5 syncitia formed (HIV-1 NL 4-3 [1]; 0.01 μM): +
- Day 6 syncitia formed (HIV-1 NL 4-3 [1]; 0.01 μM): ++
- Day 4 syncitia formed (HIV-1 NL 4-3 [1]; 0.05 μM): −
- Day 5 syncitia formed (HIV-1 NL 4-3 [1]; 0.05 μM): +
- Day 6 syncitia formed (HIV-1 NL 4-3 [1]; 0.05 μM): ++
- Day 7 syncitia formed (HIV-1 NL 4-3 [1]; 0.05 μM): ++
- Day 4 syncitia formed (HIV-1 NL 4-3 [1]; 0.1 μM): −
- Day 5 syncitia formed (HIV-1 NL 4-3 [1]; 0.1 μM): (+)
- Day 6 syncitia formed (HIV-1 NL 4-3 [1]; 0.1 μM): + and ++
- Day 7 syncitia formed (HIV-1 NL 4-3 [1]; 0.1 μM): ++
- Day 4 syncitia formed (HIV-1 NL 4-3 [1]; 0.5 μM): −
- Day 5 syncitia formed (HIV-1 NL 4-3 [1]; 0.5 μM): −
- Day 6 syncitia formed (HIV-1 NL 4-3 [1]; 0.5 μM): (+)
- Day 7 syncitia formed (HIV-1 NL 4-3 [1]; 0.5 μM): +
- Day 4 syncitia formed (HIV-1 NL 4-3 [1]; 1 μM): −
- Day 5 syncitia formed (HIV-1 NL 4-3 [1]; 1 μM): −
- Day 6 syncitia formed (HIV-1 NL 4-3 [1]; 1 μM): −
- Day 7 syncitia formed (HIV-1 NL 4-3 [1]; 1 μM): (+)
- Day 4 syncitia formed (HIV-1 NL 4-3 [1]; 5 μM): −
- Day 5 syncitia formed (HIV-1 NL 4-3 [1]; 5 μM): −
- Day 6 syncitia formed (HIV-1 NL 4-3 [1]; 5 μM): −
- Day 7 syncitia formed (HIV-1 NL 4-3 [1]; 5 μM): −
- Day 7 syncitia formed (HIV-1 NL 4-3 [2]; 0.005 μM): ++/T
- Day 7 syncitia formed (HIV-1 NL 4-3 [2]; 0.01 μM): ++/T
- IC50 (HIV-1 NL 4-3 [2]; C8166 cells, HIV-1 subtype B NL 4-3, Table 3): 20 nM
- IC50 (HIV-1 NL 4-3 [2]; [3]): 50 nM
- IC100 (HIV-1 NL 4-3 [2]; [3]): 5 µM
- P 24 (HIV-1 NL 4-3 [2]; 0.005 μM): 23810 pg/mL
- P 24 (HIV-1 NL 4-3 [2]; 0.01 μM): 21810 pg/mL
- P 24 (HIV-1 NL 4-3 [2]; 0.5 μM): 1840 pg/mL and 2830 pg/mL
- P 24 (HIV-1 NL 4-3 [2]; 1 μM): 325 pg/mL and 445 pg/mL
- P 24 (HIV-1 NL 4-3 [2]; 5 μM): 3 pg/mL
- syncitia formed, Day 4 (HIV-1 NDK; 0.005 μM): −
- syncitia formed, Day 5 (HIV-1 NDK; 0.005 μM): +
- syncitia formed, Day 6 (HIV-1 NDK; 0.005 μM): ++
- syncitia formed, Day 7 (HIV-1 NDK; 0.005 μM): ++/T
- P 24 (HIV-1 NDK; 0.005 μM): 23810 pg/mL
- syncitia formed, Day 4 (HIV-1 NDK; 0.01 μM): −
- syncitia formed, Day 5 (HIV-1 NDK; 0.01 μM): +
- syncitia formed, Day 6 (HIV-1 NDK; 0.01 μM): ++
- syncitia formed, Day 7 (HIV-1 NDK; 0.01 μM): ++/T
- P 24 (HIV-1 NDK; 0.01 μM): 21810 pg/mL
- syncitia formed, Day 4 (HIV-1 NDK; 0.05 μM): −
- syncitia formed, Day 5 (HIV-1 NDK; 0.05 μM): +
- syncitia formed, Day 6 (HIV-1 NDK; 0.05 μM): ++
- syncitia formed, Day 7 (HIV-1 NDK; 0.05 μM): ++
- P 24 (HIV-1 NDK; 0.05 μM): 23810 pg/mL and 21810 pg/mL
- syncitia formed, Day 4 (HIV-1 NDK; 0.1 μM): −
- syncitia formed, Day 5 (HIV-1 NDK; 0.1 μM): +
- syncitia formed, Day 6 (HIV-1 NDK; 0.1 μM): ++
- syncitia formed, Day 7 (HIV-1 NDK; 0.1 μM): ++
- P 24 (HIV-1 NDK; 0.1 μM): 11810 pg/mL and 15307 pg/mL
- syncitia formed, Day 4 (HIV-1 NDK; 0.5 μM): −
- syncitia formed, Day 5 (HIV-1 NDK; 0.5 μM): −
- syncitia formed, Day 6 (HIV-1 NDK; 0.5 μM): +
- syncitia formed, Day 7 (HIV-1 NDK; 0.5 μM): ++
- P 24 (HIV-1 NDK; 0.5 μM): 11840 pg/mL and 12240 pg/mL
- syncitia formed, Day 4 (HIV-1 NDK; 1 μM): −
- syncitia formed, Day 5 (HIV-1 NDK; 1 μM): −
- syncitia formed, Day 6 (HIV-1 NDK; 1 μM): −
- syncitia formed, Day 7 (HIV-1 NDK; 1 μM): (+)
- syncitia formed, Day 4 (HIV-1 NDK; 5 μM): −
- syncitia formed, Day 5 (HIV-1 NDK; 5 μM): −
- syncitia formed, Day 6 (HIV-1 NDK; 5 μM): −
- syncitia formed, Day 7 (HIV-1 NDK; 5 μM): −
- IC50 (HIV-1 NDK; HIV 1 NDK, Table 10): 200 nM
- IC100 (HIV-1 NDK; HIV 1 NDK, Table 10): 5 µM
